This is an account of results in paper PMC4564171 (PLoS ONE, 2015).

In assay [1] the test system is 10 bp pvirB FID DNA probes. Put plainly: Fluorescence intercalator displacement (FID) assay, 10 bp probes. Conditions: for 10 bp pvirB 51–60 FID probe %fluorescence: ethidium bromide 7.5 μM, probe 1.5 μM. The assay is classed as binding, Shigella flexneri. On the procedure:
The FID protocol was based on previously published studies and was conducted in triplicate. For the assay, black, half-area, 96-well plates (Corning, Twerksbury, MA) were used. First, 70 μL of ethidium bromide in Tris Buffer (0.1 M Tris HCl, 0.1 M NaCl, pH 8.0) was added to all wells. The concentration of ethidium bromide was contingent upon the length of the DNA probe that was used. For the 60 bp pvirB FID DNA probe, the final ethidium bromide concentration used was 45 μM; whereas, for the 10 bp pvirB (51–60) FID DNA probe, the final ethidium bromide concentration used was 7.5 μM. Next, 10 μL of either pvirB FID DNA probes (10 or 60 bp) in TE/NaCl buffer (see above) or 10 μL of TE/NaCl buffer (background fluorescence control) were added to the appropriate wells of the plate. The final concentrations of the pvirB FID DNA probes were 1.5 μM. Lastly, 20 μL of test compound (either 19615 or Berenil) in 10% DMSO Tris Buffer or 20 μL of 10% DMSO Tris Buffer (100% fluorescence control) were added to the appropriate wells of the plate. […] After the addition of all reagents, the plates were protected from light and allowed to equilibrate for 30 min on an orbital shaker at room temperature. Following equilibration, fluorescence was measured […] using a Biotek Synergy H1 plate reader (Winooski, VT). The average background fluorescence was subtracted from all data generated and %fluorescence was calculated for all wells containing compound via the following formula: %fluorescence=Ftest/F100%^*100 where: Ftest = the average fluorescence value obtained for each test compound and F100% = the average fluorescence value obtained for each 100% fluorescence control.

For assay [2], the system named is pvirB 21-30 (DNA, duplex) AATAAAGATA/TATCTTTATT
As to the kind of experiment: fluorescent intercalator displacement (ethidium bromide). The settings on record: 0.1 M NaCl; 0.1 M Tris-HCl pH 8.0; ethidium displaced; 2 μM compound, single concentration.

The subject of assay [3] is 60 bp pvirB FID DNA probe. As to the kind of experiment: Fluorescence intercalator displacement (FID) assay, 60 bp probe. The assay is classed as binding, Shigella flexneri. The settings on record: for 60 bp pvirB FID probe %fluorescence: ethidium bromide 45 μM, probe 1.5 μM. How it is done:
The FID protocol was based on previously published studies and was conducted in triplicate. For the assay, black, half-area, 96-well plates (Corning, Twerksbury, MA) were used. First, 70 μL of ethidium bromide in Tris Buffer (0.1 M Tris HCl, 0.1 M NaCl, pH 8.0) was added to all wells. The concentration of ethidium bromide was contingent upon the length of the DNA probe that was used. For the 60 bp pvirB FID DNA probe, the final ethidium bromide concentration used was 45 μM; whereas, for the 10 bp pvirB (51–60) FID DNA probe, the final ethidium bromide concentration used was 7.5 μM. Next, 10 μL of either pvirB FID DNA probes (10 or 60 bp) in TE/NaCl buffer (see above) or 10 μL of TE/NaCl buffer (background fluorescence control) were added to the appropriate wells of the plate. The final concentrations of the pvirB FID DNA probes were 1.5 μM. Lastly, 20 μL of test compound (either 19615 or Berenil) in 10% DMSO Tris Buffer or 20 μL of 10% DMSO Tris Buffer (100% fluorescence control) were added to the appropriate wells of the plate. The final concentrations of each test compound ranged from 12.5 μM to 100 μM. After the addition of all reagents, the plates were protected from light and allowed to equilibrate for 30 min on an orbital shaker at room temperature. Following equilibration, fluorescence was measured […] using a Biotek Synergy H1 plate reader (Winooski, VT). The average background fluorescence was subtracted from all data generated and %fluorescence was calculated for all wells containing compound via the following formula: %fluorescence=Ftest/F100%^*100 where: Ftest = the average fluorescence value obtained for each test compound and F100% = the average fluorescence value obtained for each 100% fluorescence control.

The subject of assay [4] is pvirB 11-20 (DNA, duplex) TCTTTTATCC/GGATAAAAGA
As to the kind of experiment: fluorescent intercalator displacement (ethidium bromide). The settings on record: 0.1 M NaCl; 0.1 M Tris-HCl pH 8.0; ethidium displaced; 2 μM compound, single concentration.

The test system of assay [5] is 60 bp pvirB FID (DNA, duplex) AGAATATTATTCTTTTATCCAATAAAGATAAATTGCATCAATCCAGCTATTAAAATAGTA/TACTATTTTAATAGCTGGATTGATGCAATTTATCTTTATTGGATAAAAGAATAATATTCT
Described as above. The settings on record: 0.1 M NaCl; 0.1 M Tris-HCl pH 8.0, room temperature; 45 μM ethidium displaced; 1.5 μM DNA; 100 μM compound.

In assay [6] the test system is pvirB 31-40 (DNA, duplex) AATTGCATCA/TGATGCAATT
Described as above. Conditions: 0.1 M NaCl; 0.1 M Tris-HCl pH 8.0; ethidium displaced; 2 μM compound, single concentration.

Assay [7] relates to 10 bp pvirB 51-60 FID (DNA, duplex) TAAAATAGTA/TACTATTTTA
Described as above. The settings on record: 0.1 M NaCl; 0.1 M Tris-HCl pH 8.0, room temperature; 7.5 μM ethidium displaced; 1.5 μM DNA; 100 μM compound.

For assay [8], the system named is pvirB 1-10 (DNA, duplex) AGAATATTAT/ATAATATTCT
Described as above. The settings on record: 0.1 M NaCl; 0.1 M Tris-HCl pH 8.0; ethidium displaced; 2 μM compound, single concentration.

The subject of assay [9] is initial S. flexneri invasion. Set-up: method as in PMID 24549153, PMID 20237205. The settings on record: at concentrations at or below its IC50 in the reporter assay; cited from earlier work. In general terms: Reporter assays use an easily measured gene product as a stand-in for the process of interest.
Assay [10] concerns spread of an active S. flexneri infection. The settings on record: at concentrations at or below their IC50s in the reporter assay; cited from earlier work.

Structures are written as SMILES. Several values for one entry are separate records, joined by “and”; a condition that tells them apart may be missing. Equal entries are not always repeated.

On to `CC(=O)NCC(=O)O.CC(=O)NCC(=O)O.N=C(N)c1ccc(N=NNc2ccc(C(=N)N)cc2)cc1` [Berenil, reference compound], for which, in assay [1] (compound 2 μM, preliminary FID screen, 5'-AATAAAGATA-3'), the “%fluorescence, 10 bp fragment pvirB 21-30” value is 81% ± 4%. For the same molecule, the “%fluorescence, 10 bp fragment pvirB 31-40” value in [1] (compound 2 μM, preliminary FID screen, 5'-AATTGCATCA-3') is given as 89% ± 5%. For the same molecule, the “%fluorescence, 10 bp fragment pvirB 1-10” value in [1] (compound 2 μM, preliminary FID screen, 5'-AGAATATTAT-3') was 45% ± 2%. Further, in assay [1] (compound 2 μM, preliminary FID screen, 5'-ATCCAGCTAT-3'), the “%fluorescence, 10 bp fragment pvirB 41-50” value is 96% ± 2%. Moreover, in assay [1] (compound 2 μM, preliminary FID screen, 5'-TAAAATAGTA-3'), the “%fluorescence, 10 bp fragment pvirB 51-60” value was 67% and 67% ± 0%. Also, the “%fluorescence, 10 bp fragment pvirB 11-20” value in assay [1] (compound 2 μM, preliminary FID screen, 5'-TCTTTTATCC-3') is on record as 66% ± 0%. Also, the “10 bp pvirB 51–60 FID probe %fluorescence” value in assay [1] (compound 12.5 μM) is given as 52% ± 1%; in assay [1] (compound 25 μM), 51% ± 2%; in assay [1] (compound 50 μM) it was 51% ± 1%; in [1] (compound 100 μM), 46% ± 1%. The “%fluorescence” value in [2] stood at 81 ± 4%; in [4], 66 ± 0%; in assay [5], 48 ± 2%; in [6] it was 89 ± 5%; in [7] it was 46 ± 1%; in assay [8], 45 ± 2%. Also, the “Displacement of ethidium bromide from the pvirB DNA probes (FID)” value in assay [3] (12.5 to 100 μM, both 60 bp and 10 bp probes) is recorded as “able to displace ethidium bromide”. The “60 bp pvirB FID probe %fluorescence” value is reported as 76% ± 2% in assay [3] (compound 12.5 μM), 67% ± 2% in [3] (compound 25 μM), 58% ± 1% in [3] (compound 50 μM) and 48% ± 2% in assay [3] (compound 100 μM).

`COc1ccc(NC(=O)c2nc(S(C)(=O)=O)ncc2Cl)cc1Cl` [compound 144092]: in assay [9], the “Inhibition of initial S. flexneri invasion” value is “approximately 50%”. For the same molecule, the “Inhibition of the spread of an active S. flexneri infection” value in [10] is recorded as “approximately 75%”.
